Measurements taken from patent publication US20080085889A1, “Amidomethyl-Substituted 1-(Carboxyalkyl) Cyclopentyl-Carbonylamino-Benzazepine-N-Acetic Acid Compounds, Process and Intermediate Products for Their Preparation and Pharmaceutical Compositions Containing Them” (SOLVAY PHARMACEUTICALS GmbH, priority 2003, published 2008).
pIC50: −log10 of the molar value.

What was measured:
[1] = target: T1, soluble, human recombinant NEP (Homo sapiens, UniProt P08473); experiment: In-vitro investigation of the NEP inhibitory action (fluorescence-quenched Big-ET-1 analogue, HPLC); assay type: biochemical
T1 construct: soluble, human recombinant NEP; purchased Prof; Crine, University of Montreal, Canada
Description: 1. In-Vitro Investigation of the NEP Inhibitory Action of the Substances
In this test, the measure of the inhibitory activity of the substances which was determined was their IC50 value. The IC50 value of a test substance having enzyme-inhibitory activity is that concentration of the test substance at which 50% of the enzymatic activity of the NEP is blocked.
70 μl test buffer, 10 μl enzyme working solution and 10 μl test substance solution were mixed in an Eppendorf vessel and preincubated at 37° C. for 15 minutes (=min.). Then 10 μl substrate stock solution was added and the test batch was incubated for 60 minutes at 37° C. The enzymatic reaction was then ended by 5-minutes' heating to 95° C. After centrifugation (Heraeus Biofuge B, 3 min.), the liquid supernatant was investigated by HPLC in accordance with the following specifications.
The substrate was separated from cleavage products by means of reversed-phase HPLC (CC 125/4 Nucleosil 300/5 C18 RP column with CC 8/4 Nucleosil 100/5 C18 precolumn, from Macherey-Nagel, Düren, Germany). For this, 60 μl of the test mixture was injected into the HPLC sample injection point and the column was then eluted at a flow rate of 1 ml/min with the following gradient:
Mobile Phase B: 100% acetonitrile+0.5M H3PO4
All the peptides were detected by absorption at 214 nm and by fluorescence with an excitation wavelength of 328 nm and an emission wavelength of 393 nm.
Upon enzymatic cleavage of the peptide, the fluorophore (=Mca) and the quencher end up in different peptide fragments, which reduces the effectiveness of the quench. […] The increasing fluorescence signal (corresponds to the area, A) of the HPLC peak of the peptide with the non-quenched Mca fluorophore is used for the further calculations. This signal was compared for samples with (=Ainhib) and without (=Acontrol) test substance of Formula I, and the value “% inhibition” was calculated on the basis of the respective peak areas according to the following formula: % inhibition=100*(1−Ainhib/Acontrol)
All the samples were measured in duplicates and average values were calculated therefrom. A standard inhibitor (10 nM thiorphan) and a solvent control (0.1% DMSO) were likewise measured as quality controls on each run. In this test model the test substances of Formula I listed in the following Table 1 had the IC50 values given below: […]

[2] = target: T2, His6-tagged hSEP ectodomain (Homo sapiens, UniProt Q495T6); experiment: In vitro investigation of the hSEP-inhibitory action (fluorescence-quenched Big-ET-1 analogue, HPLC); assay type: biochemical
T2 construct: His6-tagged hSEP ectodomain; His6; purchased Innogenetics, Ghent, Belgium
T2 sequence (Q495T6 49-779 limits assumed): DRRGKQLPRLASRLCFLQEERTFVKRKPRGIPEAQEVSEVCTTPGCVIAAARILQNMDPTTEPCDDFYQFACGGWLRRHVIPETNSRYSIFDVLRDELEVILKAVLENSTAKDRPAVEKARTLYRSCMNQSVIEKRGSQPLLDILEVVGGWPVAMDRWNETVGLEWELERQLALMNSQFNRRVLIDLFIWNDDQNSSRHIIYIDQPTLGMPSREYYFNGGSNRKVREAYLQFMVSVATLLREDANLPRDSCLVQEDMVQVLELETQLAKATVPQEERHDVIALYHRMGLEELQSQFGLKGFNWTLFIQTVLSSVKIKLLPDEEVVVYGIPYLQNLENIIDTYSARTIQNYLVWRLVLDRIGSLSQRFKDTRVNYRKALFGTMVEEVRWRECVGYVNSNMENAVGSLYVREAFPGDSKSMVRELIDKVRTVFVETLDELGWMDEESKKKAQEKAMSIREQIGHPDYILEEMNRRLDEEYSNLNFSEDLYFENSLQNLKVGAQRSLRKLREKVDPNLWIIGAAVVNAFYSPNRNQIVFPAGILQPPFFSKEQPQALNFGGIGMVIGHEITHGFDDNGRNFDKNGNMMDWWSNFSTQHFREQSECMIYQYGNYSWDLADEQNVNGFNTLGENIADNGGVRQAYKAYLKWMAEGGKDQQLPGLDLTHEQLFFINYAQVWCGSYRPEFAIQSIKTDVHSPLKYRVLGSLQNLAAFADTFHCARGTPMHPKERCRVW
Description: 2. In Vitro Investigation of the hSEP-Inhibitory Action of the Substances
In this test, the measure of the inhibitory activity of the substances which was determined was their IC50 value. The IC50 value of a test substance having enzyme-inhibitory activity is that concentration of the test substance at which 50% of the enzymatic activity of the hSEP is blocked.
The test and the HPLC procedure were carried out analogously to the manner set forth above for determining the in vitro inhibitory action of the test substances on NEP. 10 nM phosphoramidon served as standard inhibitor in the HPLC procedure. In this test model the test substances of Formula I listed in the following Table 2 had the IC50 values given below: […]

[3] = tested on: formation of ET-1 from Big-ET-1; experiment: In vivo inhibition of the Big-ET-1-induced blood pressure increase in anaesthetised rats, i.v. single dose; set-up: species or system Rats (Sprague-Dawley); conditions: Rattus norvegicus, iv, 5 min before 0.5 nmol/kg Big-ET-1, negative values indicate inhibition, read-out: % substance-related inhibition of the maximum Big-ET effect on SAP vs. control; for change in vivo at 10 µmol/kg: 10 μmol/kg; for change in vivo at 3 µmol/kg: 3 μmol/kg
Description: 3. In Vivo Investigation of the Inhibitory Action of the Substances on the Formation of ET-1 from Big-ET-1 in Rats
ET-1 is an endogenous substance with strong vasoconstrictive effect. An increase in the ET-1 level results in an increase in blood pressure. Upon infusion of Big-ET-1, an increase in blood pressure takes place to the extent that ET-1 is produced therefrom by enzyme-catalysed cleavage of Big-ET-1. As a measurement of the enzyme-inhibiting action of the substances, their inhibitory action on the increase in blood pressure induced by infusion of Big-ET-1 was determined.
Rats (Sprague-Dawley, CRLD=Charles River) were anaesthetised with 1 ml/kg Rompun/Ketavet 1:1. A pressure transducer (Statham) was inserted into the carotid artery to measure blood pressure. One jugular vein was cannulated for administering the substance, and the other for administering Big-ET-1. After a 20-minute equilibration phase, the rats were administered the corresponding test substance of Formula I at a dose of as a rule 10 μmol/kg (if not stated otherwise), or a vehicle. Five minutes later, 0.5 nmol/kg Big-ET-1 was infused over a period of one minute. The systolic (SAP=systolic arterial pressure) and the diastolic (DAP=diastolic arterial pressure) blood pressure and the heart rate were each measured before administration of the substance, then immediately before administration of Big-ET and in each case every five minutes over a period of 30 minutes after Big-ET administration using the pressure transducer in known manner. The maximum Big-ET-induced increase in blood pressure and the maximum lowering of heart rate were calculated from the measured values as the difference between the value measured at the moment of maximum development of the Big-ET action (typically after 5 min.) and the value measured before Big-ET infusion. Furthermore, the integral of the blood pressure curve under the influence of Big-ET-1 was determined over 30 minutes (AUC=area under the curve).
The percentage inhibition of the maximum Big-ET-1 effect on the systolic arterial blood pressure (SAP) after i.v. administration of the test substances compared with administration of a vehicle is set forth in the following Table 3a:
Data given in table 3a as negative values indicate an inhibitory effect.

T1 sequence (P08473 52-750 limits assumed): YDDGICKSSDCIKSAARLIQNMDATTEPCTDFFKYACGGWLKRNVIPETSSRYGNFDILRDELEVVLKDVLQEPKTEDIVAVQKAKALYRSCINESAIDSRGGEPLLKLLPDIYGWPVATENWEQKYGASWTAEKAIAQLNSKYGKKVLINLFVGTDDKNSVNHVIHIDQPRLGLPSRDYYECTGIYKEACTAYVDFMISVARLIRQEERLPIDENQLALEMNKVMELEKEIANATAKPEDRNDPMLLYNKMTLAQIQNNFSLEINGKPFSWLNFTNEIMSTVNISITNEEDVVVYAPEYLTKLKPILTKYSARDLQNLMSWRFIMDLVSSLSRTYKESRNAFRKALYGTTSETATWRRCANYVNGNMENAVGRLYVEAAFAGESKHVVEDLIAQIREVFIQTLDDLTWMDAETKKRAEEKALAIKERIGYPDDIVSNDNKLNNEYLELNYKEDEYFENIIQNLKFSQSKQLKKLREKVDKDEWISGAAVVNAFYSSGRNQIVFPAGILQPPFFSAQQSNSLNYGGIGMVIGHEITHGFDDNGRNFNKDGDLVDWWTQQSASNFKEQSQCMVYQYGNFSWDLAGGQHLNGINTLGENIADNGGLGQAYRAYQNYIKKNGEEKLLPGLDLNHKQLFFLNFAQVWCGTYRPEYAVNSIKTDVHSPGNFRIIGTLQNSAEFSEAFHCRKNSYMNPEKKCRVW

`O=C(O)CN1C(=O)[C@@H](NC(=O)C2(CC(CC(=O)NCCCO)C(=O)O)CCCC2)CCc2ccccc21` (stereo in doubt) [Example 10, (2″rel1″)-2-{[1-({[(3S)-1-(carboxymethyl)-2-oxo-2,3,4,5-tetrahydro-1H-1-benzazepin-3-yl]amino}carbonyl)cyclopentyl]methyl}-4-[(3-hydroxypropyl)amino]-4-oxobutyric acid] showed a pIC50 [1] of 7.43 and a pIC50 [2] of 7.60.
In the case of `O=C(O)CN1C(=O)[C@@H](NC(=O)C2(CC(CC(=O)N3CCOCC3)C(=O)O)CCCC2)CCc2ccccc21` (single isomer, unassigned) [Example 19], the pIC50 [1] was 7.74 and the pIC50 [2] was 8.02.
For `CC(C)NC(=O)CC(CC1(C(=O)N[C@H]2CCc3ccccc3N(CC(=O)O)C2=O)CCCC1)C(=O)O` (stereo partly drawn) [Example 2, 2-{[(3S)-1-({[1-(carboxymethyl)-2-oxo-2,3,4,5-tetrahydro-1H-1-benzazepin-3-yl]amino}-carbonyl)cyclopentyl]methyl}-4-(isopropylamino)-4-oxobutyric acid], the change in vivo at 10 µmol/kg [3] was -53% and the pIC50 [2] was 7.67.
Work on `CC(C)NC(=O)CC(CC1(C(=O)N[C@H]2CCc3ccccc3N(CC(=O)O)C2=O)CCCC1)C(=O)OCc1ccc(Cl)cc1` (stereo partly drawn) [Example 14, {(3S)-3-[({1-[2-{[(4-chlorobenzyl)oxy]carbonyl}-4-(isopropylamino)-4-oxobutyl]-cyclopentyl}carbonyl)amino]-2-oxo-2,3,4,5-tetrahydro-1H-1-benzazepin-1-yl}acetic acid] yielded a change in vivo at 3 µmol/kg [3] of -59%.
In the case of `O=C(O)CN1C(=O)[C@@H](NC(=O)C2(CC(CC(=O)NCc3ccccc3)C(=O)O)CCCC2)CCc2ccccc21` (mixture of isomers) [Example 27], the pIC50 [1] was 8.11 and the pIC50 [2] was 7.57.
`COc1ccccc1CNC(=O)CC(CC1(C(=O)N[C@H]2CCc3ccccc3N(CC(=O)O)C2=O)CCCC1)C(=O)O` (single isomer, unassigned) [Example 31] was tested, and the pIC50 [1] was 8.40 and the pIC50 [2] was 7.91.
With `CC(=O)CC(C)(C)NC(=O)CC(CC1(C(=O)N[C@H]2CCc3ccccc3N(CC(=O)O)C2=O)CCCC1)C(=O)O` (mixture of isomers) [Example 21] the change in vivo at 10 µmol/kg [3] was -43% and the pIC50 [1] was 7.77.
Compound `CN(C)C(=O)CC(CC1(C(=O)NC2CCc3ccccc3N(CC(=O)O)C2=O)CCCC1)C(=O)O` (racemic) [Example 54, 2-{[1-({[1-(carboxymethyl)-2-oxo-2,3,4,5-tetrahydro-1H-1-benzazepin-3-yl]amino}carbonyl)cyclopentyl]methyl}-4-(dimethylamino)-4-oxobutanoic acid] has a change in vivo at 10 µmol/kg [3] of -87%.
With `CNCCCN(C)C(=O)CC(CC1(C(=O)NC2CCc3ccccc3N(CC(=O)O)C2=O)CCCC1)C(=O)O` (racemic) [Example 77, 2-{[1-({[1-(carboxymethyl)-2-oxo-2,3,4,5-tetrahydro-1H-1-benzazepin-3-yl]amino}carbonyl)cyclopentyl]methyl}-4-{methyl[3-(methylamino)propyl]amino}-4-oxobutanoic acid] the change in vivo at 3 µmol/kg [3] was -56%.
`CNC(=O)CC(CC1(C(=O)N[C@H]2CCc3ccccc3N(CC(=O)O)C2=O)CCCC1)C(=O)O` (mixture of isomers) [Example 28] was tested, and the pIC50 [2] was 7.92.
`CC(C)[C@H](N)C(=O)OC1CCN(C(=O)CC(CC2(C(=O)N[C@H]3CCc4ccccc4N(CC(=O)O)C3=O)CCCC2)C(=O)O)CC1` (stereo partly drawn) [Example 70, 2-{[1-({[1-(carboxymethyl)-2-oxo-2,3,4,5-tetrahydro-1H-1-benzazepin-3-yl]amino}carbonyl)cyclopentyl]methyl}-4-oxo-4-[4-(L-valyloxy)piperidin-1-yl]butanoic acid] was tested, and the change in vivo at 10 µmol/kg [3] was -77%.
Work on `CN(CCO)C(=O)CC(CC1(C(=O)NC2CCc3ccccc3N(CC(=O)O)C2=O)CCCC1)C(=O)O` (racemic) [Example 43, 2-{[1-({[1-(carboxymethyl)-2-oxo-2,3,4,5-tetrahydro-1H-1-benzazepin-3-yl]amino}carbonyl)cyclopentyl]methyl}-4-[(2-hydroxyethyl)(methyl)amino]-4-oxobutanoic acid] yielded a pIC50 [1] of 8.49 and a pIC50 [2] of 8.54.
`CN(C)CCCN(C)C(=O)CC(CC1(C(=O)NC2CCc3ccccc3N(CC(=O)O)C2=O)CCCC1)C(=O)O` (racemic) [Example 60, 2-[(1-{[1-(carboxymethyl)-2-oxo-2,3,4,5-tetrahydro-1H-1-benzazepin-3-yl]carbamoyl}cyclopentyl)methyl]-4-{[3-(dimethylamino)propyl](methyl)amino}-4-oxobutanoic acid] showed a change in vivo at 10 µmol/kg [3] of -70%.
`CC(C)N(C)C(=O)CC(CC1(C(=O)NC2CCc3ccccc3N(CC(=O)O)C2=O)CCCC1)C(=O)O` (racemic) [Example 32, 2-{[1-({[1-(carboxymethyl)-2-oxo-2,3,4,5-tetrahydro-1H-1-benzazepin-3-yl]amino}carbonyl)cyclopentyl]methyl}-4-[isopropyl(methyl)amino]-4-oxobutanoic acid] was tested, and the change in vivo at 10 µmol/kg [3] was -60% and the pIC50 [1] was 7.86.
`CN(CCCO)C(=O)CC(CC1(C(=O)NC2CCc3ccccc3N(CC(=O)O)C2=O)CCCC1)C(=O)O` (racemic) [Example 56, 2-{[1-({[1-(carboxymethyl)-2-oxo-2,3,4,5-tetrahydro-1H-1-benzazepin-3-yl]amino}carbonyl)cyclopentyl]methyl}-4-[(3-hydroxypropyl)(methyl)amino]-4-oxobutanoic acid] gave a pIC50 [2] of 8.60.
